Measured values as given in patent publication US20250163122A1, “COMPOSITIONS AND METHODS FOR TREATING AIRWAY MUCUS DYSFUNCTION” (BOARD OF REGENTS, THE UNIVERSITY OF TEXAS SYSTEM, priority 2022, published 2025).
“Also recorded” adds a separate entry of the source. Where a SMILES comes first, the peptide text is derived from it. Bridges are numbered along the chain shown (N, C = ends). [ ]: non-standard residue; d: D form. S5 = C=CCCC[C@](C)(N)C(=O)O

What was measured:
[1] = CD spectroscopy, α-helical content of peptides; assay type: physicochemical; conditions: for helical content, ranking in words: among the peptides tested
Protocol: CD spectroscopy. CD spectra were measured with an AVIV stop-flow CD spectropolarimeter at 190 to 250 nm using a cell with a 1 mm path-length. The sample containing […] of synthesized peptides in PBS buffer (137 mM NaCl, 2.7 mM KCl, 10 mM Na2HPO4, and 2 mM KH2PO4, pH 7.4) was measured at 20° C. For the correction of the baseline error, the signal from a blank run with PBS buffer was subtracted from all the experimental spectra. The α-helical content of each peptide was calculated by dividing the mean residue ellipticity [φ]222obs by the reported [φ]222obs for a model helical decapeptide (Yang et al., 1986).

[2] = tested on: neuronal SNAREs only; test: Single vesicle content mixing assay, neuronal SNAREs only (VAMP2 vesicles); assay type: biochemical; conditions: 10 μM peptide; raw count
Excerpt: For single vesicle content mixing assay, the lipid composition of the SV, SG, VAMP2, or VAMP8 vesicles was phosphatidylcholine (PC) (48%), phosphatidylethanolamine (PE) (20%), phosphatidylserine (PS) (12%), and cholesterol (20%); for both the neuronal and airway PM vesicles the lipid composition was Brain Total Lipid Extract supplemented 3.5 mol % PIP2, and 0.1 mol % biotinylated phosphatidylethanolamine (PE). The reconstitution method for neuronal PM and SV vesicles was described in detail previously (see Lai et al., 2017; Kyoung et al., 2011; and Lai et al., 2014). The same methods were used for airway PM, SG, VAMP2, and VAMP8 vesicles. […] A 3-5 fold excess of SNAP-25A or SNAP-23 (with respect to Stx1A or Stx3) and 3.5 mol % PIP2 were added to the protein-lipid mixture for neuronal or airway PM vesicles. […] For the preparation of SV, SG, VAMP2, or VAMP8 vesicles for single vesicle content mixing assay, 50 mM sulforhodamine B (Thermo Fisher Scientific) was added to the protein-lipid mixture. The vesicles subsequently formed during size exclusion chromatography using a Sepharose CL-4B column, packed under near constant pressure by gravity with a peristaltic pump (GE Healthcare) in a 5.5 ml column with a 5 ml bed volume that was equilibrated with buffer V (20 mM HEPES, pH 7.4, 90 mM NaCl) supplemented with 20 μM EGTA and 0.1% 2-mercaptoethanol. The eluent was subjected to dialysis into 21 of detergent-free buffer V supplemented with 20 μM EGTA, 0.1% 2-mercaptoethanol, 5 g of Bio-beads SM2 (Bio-Rad) and 0.8 g/L Chelex 100 resin (Bio-Rad). After 4 hours, the buffer was exchanged with 21 of fresh buffer V supplemented with 20 μM EGTA, 0.1% 2-mercaptoethanol and Bio-beads, and the dialysis continued for another 12 h (overnight). […] For ensemble lipid mixing assay, the reconstitution method is the same as that for the single vesicle content mixing assay, except that 50 mM sulforhodamine B was omitted for all the steps. Single vesicle content mixing experiments. All single vesicle fusion and single molecule experiments were performed on a prism-type total internal reflection fluorescence (TIRF) microscope using 532 nm (green) laser (CrystaLaser) excitation. Two observation channels were created by a 640 nm single-edge dichroic […]36, Shemrock): one channel was used for the fluorescence emission intensity of the content dyes and the other channel for that of the Cy5 dye that are part of the injected Ca^2+-solution. The two channels were recorded on two adjacent rectangular areas (45×90 m^2) of a charge-coupled device (CCD) camera (iXon+DV […], Andor Technology). The imaging data were recorded with the […] software developed by Taekjip Ha, Johns Hopkins University, Baltimore. Flow chambers were assembled by creating a “sandwich” consisting of a quartz slide and a glass coverslip that were both coated with polyethylene glycol (PEG) molecules consisting 0.1% (w/v) biotinylated-PEG except when stated otherwise, and using double-sided tape to create up to five flow-chambers. The single vesicle content mixing assay described in Lai et al. (2014) was used to monitor vesicle-vesicle association, Ca^2+-independent, and Ca^2+-triggered fusion. The surface of the quartz slides was passivated by coating the surface with polyethylene glycol (PEG) molecules which alleviated non-specific binding of vesicles. […]

Row | Compound | helical content, ranking in words [1] | Ca2+ independent fusion events [2] | helicity / helical content ([1]; in solution, CD [φ]222 vs model helical decapeptide) [%]
1 | Ac-SKDA(S5)IRT(S5)VM(S5)DEQ(S5)EQL-amide (Ac-SKDA[S5]IRT[S5]VM[S5]DEQ[S5]EQL-NH2; staple 12-16, 5-9; SMILES CC[C@H](C)[C@@H]1NC(=O)[C@@](C)(NC(=O)[C@H](C)NC(=O)[C@H](CC(=O)O)NC(=O)[C@H](CCCCN)NC(=O)[C@H](CO)NC(C)=O)CCCC=CCCC[C@@](C)(C(=O)N[C@H](C(=O)N[C@@H](CCSC)C(=O)N[C@@]2(C)CCCC=CCCC[C@@](C)(C(=O)N[C@@H](CCC(=O)O)C(=O)N[C@@H](CCC(N)=O)C(=O)N[C@@H](CC(C)C)C(N)=O)NC(=O)[C@H](CCC(N)=O)NC(=O)[C@H](CCC(=O)O)NC(=O)[C@H](CC(=O)O)NC2=O)C(C)C)NC(=O)[C@H]([C@@H](C)O)NC(=O)[C@H](CCCNC(=N)N)NC1=O) [SP4] | largest helical content | 356 | 
2 | Ac-SKD(S5)GIR(S5)LV(S5)LDE(S5)GEQL-amide (Ac-SKD[S5]GIR[S5]LV[S5]LDE[S5]GEQL-NH2; staple 11-15, 4-8; SMILES CC[C@H](C)[C@@H]1NC(=O)CNC(=O)[C@@](C)(NC(=O)[C@H](CC(=O)O)NC(=O)[C@H](CCCCN)NC(=O)[C@H](CO)NC(C)=O)CCCC=CCCC[C@@](C)(C(=O)N[C@@H](CC(C)C)C(=O)N[C@H](C(=O)N[C@@]2(C)CCCC=CCCC[C@@](C)(C(=O)NCC(=O)N[C@@H](CCC(=O)O)C(=O)N[C@@H](CCC(N)=O)C(=O)N[C@@H](CC(C)C)C(N)=O)NC(=O)[C@H](CCC(=O)O)NC(=O)[C@H](CC(=O)O)NC(=O)[C@H](CC(C)C)NC2=O)C(C)C)NC(=O)[C@H](CCCNC(=N)N)NC1=O) [SP10] | largest helical content | 341 | 
3 | CC[C@H](C)[C@H](NC(=O)[C@]1(C)CCCC=CCCC[C@](C)(NC(=O)[C@H](CCC(=O)O)NC(=O)[C@H](CCC(=O)O)NC(C)=O)C(=O)N[C@@H](CCCCN)C(=O)N[C@@H](CC(=O)O)C(=O)N[C@@H](C)C(=O)N1)C(=O)N[C@@H](CCCNC(=N)N)C(=O)N[C@@]1(C)CCCC=CCCC[C@@](C)(C(=O)N[C@@H](CC(=O)O)C(=O)N[C@@H](CCC(=O)O)C(=O)N[C@@H](CCC(N)=O)C(=O)N[C@@H](CS)C(N)=O)NC(=O)[C@H](CCSC)NC(=O)[C@H](C(C)C)NC(=O)[C@H](CC(C)C)NC1=O [SP9, Ac-EE(S5)KDA(S5)IR(S5)LVM(S5)DEQC-amide] (Ac-EE[S5]KDA[S5]IR[S5]LVM[S5]DEQC-NH2; staple 3-7, 10-14) | largest helical content; also recorded: highest α-helicity | 336 | 
4 | Ac-SKD(S5)GIR(S5)LVMLDE(S5)GEQ(S5)DR-amide (Ac-SKD[S5]GIR[S5]LVMLDE[S5]GEQ[S5]DR-NH2; staple 15-19, 4-8; SMILES CC[C@H](C)[C@@H]1NC(=O)CNC(=O)[C@@](C)(NC(=O)[C@H](CC(=O)O)NC(=O)[C@H](CCCCN)NC(=O)[C@H](CO)NC(C)=O)CCCC=CCCC[C@@](C)(C(=O)N[C@@H](CC(C)C)C(=O)N[C@H](C(=O)N[C@@H](CCSC)C(=O)N[C@@H](CC(C)C)C(=O)N[C@@H](CC(=O)O)C(=O)N[C@@H](CCC(=O)O)C(=O)N[C@@]2(C)CCCC=CCCC[C@@](C)(C(=O)N[C@@H](CC(=O)O)C(=O)N[C@@H](CCCNC(=N)N)C(N)=O)NC(=O)[C@H](CCC(N)=O)NC(=O)[C@H](CCC(=O)O)NC(=O)CNC2=O)C(C)C)NC(=O)[C@H](CCCNC(=N)N)NC1=O) [SP1] | largest helical content | 245 | 
5 | EESKDAGIRTLVMLDEQGEQLD [Peptide P0, non-stapled SNAP-25A fragment used as a control, reference compound] |  | 104 | 5
